Laboratory results taken from ChEMBL document CHEMBL4118040, “Neomacrophorin X, a [4.4.3]Propellane-Type Meroterpenoid from Trichoderma sp. 1212-03” (J Nat Prod, 2017).

Columns and labels:
[1] = test system: HL-60; test: Cytotoxicity against human HL60 cells after 2 days by MTT assay; type: functional, cell-based; settings: HL-60, 48 h
[2] = target: T1, Proteasome Macropain subunit MB1 (Homo sapiens, UniProt P28074); test: Inhibition of human erythrocyte 20s proteasome chymotrypsin-like activity using Suc-LLVY-MCA as substrate pretreated for 10 mins followed by substrate addition measured after 3 hrs by spectrophotometric method
T1 sequence (P28074 whole entry): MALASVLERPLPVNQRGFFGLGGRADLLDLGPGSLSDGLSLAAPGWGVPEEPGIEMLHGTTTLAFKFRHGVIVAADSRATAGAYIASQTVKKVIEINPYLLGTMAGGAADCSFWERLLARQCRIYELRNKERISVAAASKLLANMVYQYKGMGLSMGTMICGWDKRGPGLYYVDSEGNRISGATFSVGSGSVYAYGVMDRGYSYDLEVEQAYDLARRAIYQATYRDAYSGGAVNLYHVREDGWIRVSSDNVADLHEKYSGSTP

IC50 [2]: 18.5 µM
Structure (SMILES): C=C1CC[C@H]2C(C)(C)[C@H](O)CC[C@]2(C)[C@H]1CC1=C(O)C(=O)C2=C(C1=O)[C@@]13C=C[C@@H](O)[C@H](O)[C@]1(C2)C(=O)c1c(O)cc(C)cc1C3=O
IC50 [1]: 9.3 µM
